Assay results reported in patent US20250122167A1, “Pyrazine Compounds Useful in the Treatment of Parasitic Protozoal Infection” (priority 2021, published 2025).
Counter-ions that a name gives are not always drawn. Like-named read-outs stand apart in the source and are kept apart here.

How the values were obtained:
[1] = test system: P. falciparum 3D7A strain parasitized red blood cells; assay: P. falciparum growth inhibition assay Sybr Green; format: cell-based, Plasmodium falciparum; conditions: for IC50: Plasmodium falciparum, Erythrocyte, 48 h
Protocol: P. falciparum Growth Inhibition Assay Sybr Green
The parasite growth is determined measuring the staining of the DNA's minor groove with SYBR Green I, which labels the remaining parasites. The DNA-SYBR complex absorbs light reaching the peak at λ=498 nm and emits at a peak of λ=522 nm.
Briefly, a culture of 3D7A strain parasitized red blood cells (RBC) (0.5% parasitemia and 2% haematocrit in RPMI-1640 supplemented with 25 ml albumax and […] hypoxanthine for 500 ml) is exposed to 3-fold serial dilutions of the compound. Plates are incubated 48 h at 37° C., 5% CO2, 5% O2, 90% N2. At 48 h of incubation, SyberGreen I solution (2×) is added and plates are incubated for 30 minutes at 37° C., 5% CO2, 5% O2, 90% N2 and then plates are frozen at −80° C. Then plates are read in the EnVision (EnVision Multilabel Plate Reader, Perkin Elmer). Data (pIC50) are generated by ActivityBase (IDBS) and graphs are checked by Spotfire.
Inhibition of parasite growth in whole cell assay (infected human eritrocites) in vitro is directly linked to reduction of parasitemia in vivo.

[2] = test system: Plasmodium falciparum Pf3D7^0087/N9; assay: P. falciparum in vivo efficacy assay (humanised mouse model); conditions: NODscidIL2Rγ mice engrafted with human erythrocytes; for ED90 mean: parasitemia by microscopy and flow cytometry; for AUCED90 mean: blood exposure (AUC0-23h after first dose) at ED90
Protocol: Antimalarial in vivo efficacy was determined using the P. falciparum mouse model following the procedure described in: Jimenez-Díaz, M. B., Mulet, T., Viera, S., Gómez, V., Garuti, H., Ibañez, J., Alvarez-Doval, A., Shlutz, D. L., Martinez, A., Improved Murine Model Of Malaria Using Plasmodium falciparum (Competent Strains and Non-Myelodepleted NOD-scid IL2R_null Mice Engrafted with Human Erythrocytes) Antimicrob. Agents Chemother 2009, 53 (10), 4533-4536.
The goal of the study was to assess the therapeutic efficacy of the examples against Plasmodium falciparum Pf3D7^0087/N9 growing in peripheral blood of NODscidIL2Ry^0087/N9 mice engrafted with human erythrocytes. The levels of the examples were measured in serial peripheral blood samples obtained from each mouse of the efficacy experiment during the first 23 hrs after the first dose. The area under the curve of levels of compound is used to estimate the exposure in blood during the first 23 hours after the first administration (AUC0-23h).
The effect of Examples 1, 2, 5, 7, 8 and 10 on P. Falciparum Pf3D7^0087/N9 was assessed by microscopy and flow cytometry.

[3] = Kinetic aqueous solubility in PBS pH 7.4 (HPLC-CAD); format: physicochemical; conditions: PBS pH7.4, room temperature, 1 hour equilibration; for solubility at 1 h / solubility kinetic at 1 h: phosphate buffered saline (PBS), pH 7.4, aqueous buffer, kinetic from dmso stock; for solubility kinetic at 1 h: read-out: Concentration; for Solubility: from DMSO stock
Protocol: The kinetic aqueous solubility was measured at room temperature after 1 hour equilibration in aqueous phosphate buffered saline (PBS) at pH7.4, and is determined by measuring the concentration of solute in solution after precipitation from DMSO stock solution.
The sample plate was left to equilibrate for 1 hour at room temperature.
Vacuum filtration was applied to filter the solution into a 96-well collection plate.
The filtrate was analysed by HPLC-CAD (Charged Aerosol Detector).
Calibration standards of Ketoconazole and Primidone were prepared by serial dilutions in DMSO at concentrations ranging from 0.016 to 4.5 mg/ml to produce the calibration curve.

[4] = Equilibrium solubility in Fasted State Simulated Intestinal Fluid (FaSSIF); conditions: FaSSIF pH 6.5, room temperature, 4 hour equilibration, dynamic range 1-1000 μg/ml
physchem = conditions: Fasted State Simulated Intestinal Fluid (FaSSIF), pH 6.5, fassif, thermodynamic from solid
[5] = average, 48 h incubation, SYBR Green I readout, ditrifluoroacetic acid salt
[6] = range of values, 48 h incubation, SYBR Green I readout, ditrifluoroacetic acid salt
[7] = average, 48 h incubation, SYBR Green I readout, dihydrochloride
[8] = range of values, 48 h incubation, SYBR Green I readout, dihydrochloride
[9] = average, 48 h incubation, SYBR Green I readout, read-out: Average value pIC50 (converted)
[10] = range of values, 48 h incubation, SYBR Green I readout, read-out: Pf3D7 pIC50 (converted)
[11] = read-out: Average value pIC50, average (converted), 48 h incubation, SYBR Green I readout
[12] = read-out: Pf3D7 pIC50, range of values (converted), 48 h incubation, SYBR Green I readout

Structure (SMILES): NC1(CNC(=O)c2ccc(-c3cncc(-c4cncc(F)c4)n3)cc2)CCC1 [Example 1, N-((1-aminocyclobutyl)methyl)-4-(6-(5-fluoropyridin-3-yl)pyrazin-2-yl)benzamide, ditrifluoroacetic acid salt]
- Average value pIC50 [1, 5]: 8.50
- Pf3D7 pIC50 [1, 6]: 8.48-8.60
- ED90 mean ([2]; ditrifluoroacetic acid salt): 1.28 mg/kg
- AUCED90 mean ([2]; ditrifluoroacetic acid salt): 0.067 mg · h · mL^−1 · day^−1
- solubility at 1 h [3]: ≥ 124 µg/mL
- solubility kinetic at 1 h [3]: ≥ 329 mM
- FaSSIF solubility ([4]; ditrifluoroacetic acid salt): 429 µg/mL

Structure (SMILES): NC1(CNC(=O)c2ccc(-c3cncc(-c4cncc(F)c4)n3)cc2)CCC1 [Example 2, N-((1-aminocyclobutyl)methyl)-4-(6-(5-fluoropyridin-3-yl)pyrazin-2-yl)benzamide, dihydrochloride]
- Average value pIC50 [1, 7]: 8.50
- Pf3D7 pIC50 [1, 8]: 8.47-8.63
- ED90 mean ([2]; dihydrochloride): 1.14 mg/kg
- AUCED90 mean ([2]; dihydrochloride): 0.121 mg · h · mL^−1 · day^−1
- solubility at 1 h [3]: ≥ 126 µg/mL
- solubility kinetic at 1 h [3]: ≥ 335 mM
- solubility at 4 h (physchem): 398 µg/mL

Structure (SMILES): NC1(CNC(=O)c2ccc(-c3cncc(-c4cncc(F)c4)n3)cc2)CCC1 [Example 3, N-((1-aminocyclobutyl)methyl)-4-(6-(5-fluoropyridin-3-yl)pyrazin-2-yl)benzamide, sulfuric acid salt]
- IC50 [1, 9]: 3.16 nM
- IC50 [1, 10]: 2.51 to 5.01 nM
- Solubility [3]: ≥94.7 µg/mL

Structure (SMILES): NC1(CNC(=O)c2ccc(-c3cncc(-c4cncc(F)c4)n3)cc2)CCC1 [Example 4, N-((1-aminocyclobutyl)methyl)-4-(6-(5-fluoropyridin-3-yl)pyrazin-2-yl)benzamide]
- Average value pIC50 ([1]; average, 48 h incubation, SYBR Green I readout): 8.60
- Pf3D7 pIC50 ([1]; range of values, 48 h incubation, SYBR Green I readout): 8.54-8.76
- Solubility [3]: ≥129.8 µg/mL
- FaSSIF solubility [4]: >1000 µg/mL

Structure (SMILES): NC1(CNC(=O)c2ccc(-c3cncc(-c4cncc(F)c4)n3)cc2)CC1 [Example 5, N-((1-aminocyclopropyl)methyl)-4-(6-(5-fluoropyridin-3-yl)pyrazin-2-yl)benzamide, dihydrochloride]
- IC50 [1, 11]: 3.16 nM
- IC50 [1, 12]: 2.51 to 4.57 nM
- ED90 mean [2]: 1.04 mg/kg
- AUCED90 mean [2]: 0.13 mg · h · mL^−1 · day^−1
- solubility at 1 h [3]: ≥ 114 µg/mL
- solubility kinetic at 1 h [3]: ≥ 313 mM
- FaSSIF solubility ([4]; dihydrochloride): 380 µg/mL

Structure (SMILES): NC1(CNC(=O)c2ccc(-c3cncc(-c4cncc(F)c4)n3)cc2)CC1 [Example 6, N-((1-aminocyclopropyl)methyl)-4-(6-(5-fluoropyridin-3-yl)pyrazin-2-yl)benzamide, ditrifluoroacetic acid salt]
- solubility at 1 h [3]: ≥ 200 µg/mL
- solubility kinetic at 1 h [3]: ≥ 549 mM
- solubility at 4 h (physchem): 339 µg/mL

Structure (SMILES): CC(C)(N)CNC(=O)c1ccc(-c2cncc(-c3cncc(F)c3)n2)cc1 [Example 7, N-(2-amino-2-methylpropyl)-4-(6-(5-fluoropyridin-3-yl)pyrazin-2-yl)benzamide, ditrifluoroacetic acid salt]
- IC50 [1, 11]: 7.94 nM
- IC50 [1, 12]: 7.08 to 8.91 nM
- ED90 mean [2]: 1.74 mg/kg
- AUCED90 mean [2]: 0.05 mg · h · mL^−1 · day^−1
- solubility at 1 h [3]: ≥ 84.4 µg/mL
- solubility kinetic at 1 h [3]: ≥ 231 mM
- solubility at 4 h (physchem): 742 µg/mL

Structure (SMILES): N[C@@H]1CCCC[C@@H]1NC(=O)c1ccc(-c2cncc(-c3cncc(F)c3)n2)cc1 [Example 8, N-((1S,2R)-2-aminocyclohexyl)-4-(6-(5-fluoropyridin-3-yl)pyrazin-2-yl)benzamide, dihydrochloride]
- Average value pIC50 [1, 7]: 8.40
- Pf3D7 pIC50 [1, 8]: 8.33-8.6
- ED90 mean ([2]; dihydrochloride): 1.59 mg/kg
- AUCED90 mean ([2]; dihydrochloride): 0.26 mg · h · mL^−1 · day^−1
- solubility at 1 h [3]: ≥ 106 µg/mL
- solubility kinetic at 1 h [3]: ≥ 271 mM
- FaSSIF solubility ([4]; dihydrochloride): >1000 µg/mL

Structure (SMILES): N[C@@H]1CCCC[C@@H]1NC(=O)c1ccc(-c2cncc(-c3cncc(F)c3)n2)cc1 [Example 9, N-((1S,2R)-2-aminocyclohexyl)-4-(6-(5-fluoropyridin-3-yl)pyrazin-2-yl)benzamide, ditrifluoroacetic acid salt]
- Average value pIC50 [1, 5]: 8.60
- Pf3D7 pIC50 [1, 6]: 8.53-8.60
- solubility at 1 h [3]: 115 µg/mL
- solubility kinetic at 1 h [3]: 293 mM
- solubility at 4 h (physchem): 789 µg/mL

Structure (SMILES): N[C@@H]1CCCC[C@@H]1NC(=O)c1ccc(-c2cncc(-c3cncc(F)c3)n2)cc1 [Example 10, N-((1S,2R)-2-aminocyclohexyl)-4-(6-(5-fluoropyridin-3-yl)pyrazin-2-yl)benzamide]
- IC50 [1, 9]: 3.16 nM
- IC50 [1, 10]: 3.09 to 3.8 nM
- ED90 mean [2]: 0.95 mg/kg
- AUCED90 mean [2]: 0.20 mg · h · mL^−1 · day^−1
- Solubility [3]: ≥136.2 µg/mL
- FaSSIF solubility [4]: 941 µg/mL
